Measurements published in patent publication US20070071783A1, “Pheromone attractants for the green mirid” (priority 2004, published 2007).
Marks after values point to notes of the source that are not given here.

Legend:
[1] = system: green mirid, Creontiades dilutus; experiment: Field trapping bioassays: rubber septa lures in delta traps; assay type: in vivo; details: Experiment 1, soybeans, Cecil Plains; for Mean trap catch: 2 mg lure, mean ± s.e.
Procedure: A series of trials involving blends of the major component, hexyl hexanoate and the minor component (E)-2 hexenyl hexanoate in various ratios, as coded and presented in Table 1, as well as the single components, were tested in a series of field trapping experiments. After the initial optimisation, two other components (methyl salicylate and (Z)-3 hexenyl acetate), found in both the male and female extracts, were tested by adding them to the optimised blend.
Lures were prepared using rubber septa. Each lure was loaded with 2 mg of the blend with 10% butylated hydroxytoluene (BHT) added as an anti-oxidant. Control lures were loaded with BHT only.
Field experiments were conducted at Cecil Plains (Qld), Narrabri, Tamworth, Mullaley and Armidale (NSW). The experimental designs were Latin Squares with treatment (pheromone blend), trap position and day as the factors. Traps were placed in a grid at intervals of 25-50 m, cleared daily, and rotated to different positions in the Latin Square designs. Delta traps made out of plastic (Corflute®) were used.
This experiment aimed to test blends against individual components of the female sex pheromone. A 4×4 Latin square design with 4 rotation periods, 4 blend locations and 4 treatments was set up in soybeans in Cecil Plains. Traps were located 100 m from each other and cleared every day before rotation. […] They were only caught in traps baited with the blend GM1 at an average of 3.9 males per trap. All insects caught were sexed morphologically and found to be males. […]
A 3×3 Latin Square experiment, replicated at two different sites in mung beans and one site in a slashed lucerne field was set up in Mullaley, NSW. This experiment involved blends GM2, GM12, GM13. In the mung beans at Site 1, blend type was the only significant factor (P<0.01).
Blends GM2, GM12, GM17 and GM19 were tested in a 4×4 Latin Square experiment in lucerne at Piallamore, NSW. […] Analysis of variance on the logarithmically transformed data indicated no significant differences (P>0.05) between the blends.
This experiment aimed at testing the effect of septa loading on trap catches. It involved the use of blend GM2 with a 2, 20 and 40 mg loading respectively. The ratio of hexyl hexanoate to (E)-2-hexenyl acetate in all blends was 5:1. The design was a 3×3 Latin Square set up at two different sites in mung beans at Mullaley, NSW. […] Trap location and day were also non significant (Table 11).
This experiment aimed at testing the effects of methyl salicylate and (Z)-3 hexenyl acetate, identified in both male and female extracts on the optimised blend. The hypothesis was that they might increase the attractiveness of the blend. Blends GM2, GM14, GM15 and GM16 were used in a 4×4 Latin Square experiment conducted in lucerne at Piallamore, NSW. […]

[2] = system: green mirid, Creontiades dilutus; experiment: Attract-and-kill Experiment 1: sprayed-on formulation with added insecticide (methomyl); assay type: in vivo; details: pigeon peas, Mullaley, about 2.3% volatiles in carrier, methomyl 0.5%, 5 m of row
Source text: The trial was set up in late flowering pigeon peas near Mullaley, NSW. The pheromone components were mixed with the formulation base from Magnet®, the commercial embodiment of the compositions described in WO 02/089577, the contents of which are incorporated herein by reference.
The plant volatile components of Magnet® were not included. The toxicant was methomyl at a concentration of 0.5% active ingredient.
There were four treatments: • 1) Control (no pheromone components added; carrier only) • 2) 12 ml hexyl hexanoate added to 500 ml of carrier • 3) 12 ml (E)-2 hexenyl hexanoate added to 500 ml of carrier • 4) 10 ml hexyl hexanoate plus 2 ml (E)-2 hexenyl hexanoate added to 500 ml carrier
Thus, in treatments 2-4 the final concentration of volatile pheromone components was about 2.3%. Treatment 4 had the two components in the optimum ratio as determined by trapping experiments.
Approximately 100 ml of each mixture was applied to 5 m of row of the pigeon peas, being shaken from a plastic bottle onto the tops of the plants. There were three replicates of each treatment, with buffer zones of 20 m surrounding them. Black plastic weed mat, 90 cm wide, was placed in the furrows on both sides,of the treated rows. It was secured around the bases of the plants using clothes pegs. This was done to facilitate finding dead GM. The treated areas were searched each morning over the next three days, and any dead GM found were sexed. Two pheromone traps, using blend GM2 as previously described, were also operated near the experimental site. At the conclusion of the experiment, five replicate samples using beat sheets were taken in the vicinity of the sprayed regions.

Phytocoris californicus = details: Millar & Rice 1998; Millar et al. 1997; cited from earlier work
[3] = system: mullein bug, Campylomma verbasci; details: blend released at rates of 91 and 183 μL per day; Smith et al. 1991, McBrien et al. 1994; cited from earlier work
Phytocoris relativus = details: Millar & Rice 1998; cited from earlier work
[4] = Day 1, standard error in brackets

Compound | GM caught in baited traps, average [1] | Mean trap catch [1] | Mean number of female adults found (killed) [2, 4] | Mean number of male adults found (killed) [2, 4] | Mean number of nymphs found (killed) [2, 4] | Mean number of female adults found (killed) ([2]; Day 2) | Mean number of male adults found (killed) ([2]; Day 2) | Mean number of nymphs found (killed) ([2]; Day 2) | Attractiveness of lures in field studies [3] | other results
CCC/C=C/COC(=O)CCCCC [GM6, (E)-2-hexenyl hexanoate] | did not attract any GM | 0.0 ± 0^b | 1.0 (1.0) | 3.0 (1.1) | 0.3 (0.3) | 0 | 1.3 | 0 |  | 
CCCCCCOC(=O)CCCCC [GM5, hexyl hexanoate] | did not attract any GM | 0.0 ± 0^b | 1.3 (0.3) | 1.3 (0.3) | 0.3 | 0 | 0 | 0 |  | 
CCCCC/C=C/COC(=O)CCC [(E)-2-octenyl butyrate] |  |  |  |  |  |  |  |  |  | Inhibition of attraction of P. californicus males to traps (Phytocoris californicus): inhibited attraction
CCCCOC(=O)CCC [butyl butyrate] |  |  |  |  |  |  |  |  | inactive | 
CCCCC/C=C/COC(C)=O [(E)-2-octenyl acetate] |  |  |  |  |  |  |  |  |  | Inhibition of P. relativus males (Phytocoris relativus): did not inhibit
C/C=C/COC(=O)CCC [(E)-2-butenyl butyrate] |  |  |  |  |  |  |  |  | inactive | 
